The structures appear in SMILES notation.

One assay addresses JAK3 (Homo sapiens (Human), UniProt P52333). As to the kind of experiment: Jak Biochemical HTRF Assay (JAK3). The conditions noted are these: recombinant GST-tagged catalytic domain, [ATP] 2.9 μM. As for the experimental part:
(§1) Biological Assays Jak Biochemical HTRF Assay Protocol
The ability of compounds to inhibit the activity of JAK1, JAK2, JAK3, and Tyk2 was measured using a recombinant purified GST-tagged catalytic domain for each enzyme (Invitrogen JAK1 #M4290, JAK2 #M4290, JAK3 #M4290, Tyk2 #M4290) in an HTRF format biochemical assay. […] Subsequent reagent additions employed an Agilent Bravo. […] After equilibration, 2 μL of 10×ATP in 1× assay buffer was added to initiate the kinase reaction and the plates were shaken and then incubated at room temperature for 120 minutes. At the end of the incubation, 20 μL of 2× stop buffer (streptavidin-Dylight 650 (Thermo #84547B100 mL), Eu-tagged pY20 antibody (Perkin Elmer #AD0067), EDTA, HEPES, and Triton) was added to quench the reaction. […] After normalization to untreated controls, the percent inhibition of the HTRF signal at each compound concentration was calculated. The plot of percent inhibition versus the log of compound concentration was fit with a 4-parameter dose response equation to calculate IC50 values.
In general terms: In TR-FRET formats the signal depends on donor and acceptor labels being close together.

The target in a further assay is JAK2 (Homo sapiens (Human), UniProt O60674). The assay can be described thus: Jak Biochemical HTRF Assay (JAK2). The settings on record: recombinant GST-tagged catalytic domain, [ATP] 8.5 μM. As for the experimental part:
as §1
The ability of compounds to inhibit the activity of JAK1, JAK2, JAK3, and Tyk2 was measured using a recombinant purified GST-tagged catalytic domain for each enzyme (Invitrogen JAK1 #M4290, JAK2 #M4290, JAK3 #M4290, Tyk2 #M4290) in an HTRF format biochemical assay. […] The basic assay protocol is as follows: First, 250 nL of diluted compounds in DMSO were dispensed into the wells of a dry 384-well Black plate (Greiner #781076) using a Labcyte Echo 555 acoustic dispenser. Subsequent reagent additions employed an Agilent Bravo. Next, 18 μL of 1.11× enzyme and 1.11× substrate in 1× assay buffer (Invitrogen kinase buffer # PV3189, 2 mM DTT, 0.05% BSA) were added to the wells and shaken and then preincubated for 30 minutes at room temperature to allow compound binding to equilibrate. After equilibration, 2 μL of 10×ATP in 1× assay buffer was added to initiate the kinase reaction and the plates were shaken and then incubated at room temperature for 120 minutes. At the end of the incubation, 20 μL of 2× stop buffer (streptavidin-Dylight 650 (Thermo #84547B100 mL), Eu-tagged pY20 antibody (Perkin Elmer #AD0067), EDTA, HEPES, and Triton) was added to quench the reaction. Plates were shaken and centrifuged and then incubated 60 minutes at room temperature and then read on a Perkin Elmer Envision (λex=337 nm, λem=665 and 615 nm, TRF delay time=20 μs). HTRF signal=10,000*665 nm reading 615 nm reading. After normalization to untreated controls, the percent inhibition of the HTRF signal at each compound concentration was calculated. The plot of percent inhibition versus the log of compound concentration was fit with a 4-parameter dose response equation to calculate IC50 values.

Sequence of JAK2 (O60674 849-1124): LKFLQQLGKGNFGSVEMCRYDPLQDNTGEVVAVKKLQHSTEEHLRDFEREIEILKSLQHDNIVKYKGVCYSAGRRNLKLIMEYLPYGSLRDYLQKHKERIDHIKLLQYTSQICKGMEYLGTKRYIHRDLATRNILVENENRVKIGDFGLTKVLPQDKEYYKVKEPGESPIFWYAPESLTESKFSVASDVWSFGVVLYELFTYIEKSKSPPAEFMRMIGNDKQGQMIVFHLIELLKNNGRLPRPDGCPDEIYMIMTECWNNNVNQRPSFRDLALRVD
Sequence of JAK3 (P52333 822-1111): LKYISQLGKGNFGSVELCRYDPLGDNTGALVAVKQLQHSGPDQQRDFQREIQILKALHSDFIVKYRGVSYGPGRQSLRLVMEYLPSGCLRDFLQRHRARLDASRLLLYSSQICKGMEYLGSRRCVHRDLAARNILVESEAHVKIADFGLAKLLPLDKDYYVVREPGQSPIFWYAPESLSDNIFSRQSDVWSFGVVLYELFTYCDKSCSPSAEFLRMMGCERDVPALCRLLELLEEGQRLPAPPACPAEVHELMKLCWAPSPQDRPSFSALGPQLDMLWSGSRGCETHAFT

For `CCOC(=O)c1c[nH]c2ncnc(-c3cccnc3)c12` [Example 1-28, ethyl 4-pyridin-3-yl-7H-pyrrolo[2,3-d]pyrimidine-5-carboxylate], the values for the half-inhibitory concentration (IC50) on JAK3 (given as range class) and at JAK2 (given as range class) were 10 to 500 nM and greater than 500 nM, respectively.

For the molecule `CCOC(=O)c1c[nH]c2ncnc(-c3ccc4c(C(=O)N(C)C)n(C)nc4c3)c12` [Example 1-30, ethyl 4-[3-(dimethylcarbamoyl)-2-methyl-2H-indazol-6-yl]-7H-pyrrolo[2,3-d]pyrimidine-5-carboxylate], the half-maximal inhibitory concentration (IC50) (in general, the concentration at which inhibition is half-maximal) at JAK3 (given as range class) is 10 to 500 nM; at JAK2 (given as range class), greater than 500 nM.

With `CCOC(=O)c1c[nH]c2ncnc(-c3ccc4c(c3)NCC4)c12` [Example 1-31, ethyl 4-(2,3-dihydro-1H-indol-6-yl)-7H-pyrrolo[2,3-d]pyrimidine-5-carboxylate], the results for the IC50 at JAK3 and on JAK2 were 4.6 nM and 91 nM, respectively.

With `CCOC(=O)c1c[nH]c2ncnc(-c3ccc(COC)c(N)c3)c12` [Example 1-33, ethyl 4-[3-amino-4-(methoxymethyl)phenyl]-7H-pyrrolo[2,3-d]pyrimidine-5-carboxylate], the figures for the IC50 at JAK3 (given as range class) and at JAK2 (given as range class) were 10 to 500 nM and greater than 500 nM, respectively.

For the molecule `CCOC(=O)c1c[nH]c2ncnc(-c3ccc(F)cc3)c12` [Example 1-34, ethyl 4-(4-fluorophenyl)-7H-pyrrolo[2,3-d]pyrimidine-5-carboxylate], the IC50 on JAK3 (given as range class) and on JAK2 (given as range class) was 10 to 500 nM in each case.

Take `CCOC(=O)c1c[nH]c2ncnc(-c3ccc(O)cc3)c12` [Example 1-35, ethyl 4-(4-hydroxyphenyl)-7H-pyrrolo[2,3-d]pyrimidine-5-carboxylate]: the IC50 is 5.7 nM on JAK3 and 134 nM at JAK2.

Consider `CCOC(=O)c1c[nH]c2ncnc(-c3ccc(C(F)(F)F)cc3)c12` [Example 1-36, ethyl 4-[4-(trifluoromethyl)phenyl]-7H-pyrrolo[2,3-d]pyrimidine-5-carboxylate], for which the results for the half-inhibitory concentration (IC50) on JAK3 (given as range class) and at JAK2 (given as range class) were 10 to 500 nM and greater than 500 nM, respectively.

On to `CCOC(=O)c1c[nH]c2ncnc(-c3ccc(C)cc3)c12` [Example 1-37, ethyl 4-(4-methylphenyl)-7H-pyrrolo[2,3-d]pyrimidine-5-carboxylate], for which the 50% inhibitory concentration (IC50) on JAK3 (given as range class) and on JAK2 (given as range class) was 10 to 500 nM in each case.

`CCOC(=O)c1c[nH]c2ncnc(-c3ccccc3C)c12` [Example 1-38, ethyl 4-(2-methylphenyl)-7H-pyrrolo[2,3-d]pyrimidine-5-carboxylate]: the concentration for half-maximal inhibition (IC50) is 10 to 500 nM at JAK3 (given as range class) and greater than 500 nM on JAK2 (given as range class).

As for `CCOC(=O)c1c[nH]c2ncnc(-c3ccc4ccccc4c3)c12` [Example 1-40, ethyl 4-naphthalen-2-yl-7H-pyrrolo[2,3-d]pyrimidine-5-carboxylate], the IC50 at JAK3 amounted to 8.8 nM; on JAK2 it was 186 nM.

Regarding `CCOC(=O)c1c[nH]c2ncnc(-c3ccccc3F)c12` [Example 1-41, ethyl 4-(2-fluorophenyl)-7H-pyrrolo[2,3-d]pyrimidine-5-carboxylate], the IC50 on JAK3 turned out to be 7.5 nM; on JAK2, 168 nM.

As to `CCOC(=O)c1c[nH]c2ncnc(-c3cccc(F)c3)c12` [Example 1-42, ethyl 4-(3-fluorophenyl)-7H-pyrrolo[2,3-d]pyrimidine-5-carboxylate], the results for the IC50 at JAK3 and on JAK2 were 9 nM and 121 nM, respectively.

As for `CCOC(=O)c1c[nH]c2ncnc(-c3ccccc3Cl)c12` [Example 1-43, ethyl 4-(2-chlorophenyl)-7H-pyrrolo[2,3-d]pyrimidine-5-carboxylate], the results for the IC50 at JAK3 (given as range class) and on JAK2 (given as range class) were 10 to 500 nM and greater than 500 nM, respectively.

As for `CCOC(=O)c1c[nH]c2ncnc(-c3ccc(-c4ccccc4)cc3)c12` [Example 1-44, ethyl 4-biphenyl-4-yl-7H-pyrrolo[2,3-d]pyrimidine-5-carboxylate], the half-inhibitory concentration (IC50) on JAK3 is 4.2 nM; on JAK2 it was 47 nM.

Regarding `CCOC(=O)c1c[nH]c2ncnc(-c3cccc(O)c3)c12` [Example 1-45, ethyl 4-(3-hydroxyphenyl)-7H-pyrrolo[2,3-d]pyrimidine-5-carboxylate], the IC50 at JAK3 was determined as 5.6 nM; on JAK2 it was 127 nM.

Consider `CCOC(=O)c1c[nH]c2ncnc(-c3cccc(C)c3)c12` [Example 1-46, ethyl 4-(3-methylphenyl)-7H-pyrrolo[2,3-d]pyrimidine-5-carboxylate], for which the values for the IC50 on JAK3 and on JAK2 were 7.6 nM and 143 nM, respectively.

Turning to `CCOC(=O)c1c[nH]c2ncnc(-c3ccc(N(C)C)cc3)c12` [Example 1-47, ethyl 4-[4-(dimethylamino)phenyl]-7H-pyrrolo[2,3-d]pyrimidine-5-carboxylate], the IC50 at JAK3 turned out to be 3.3 nM; on JAK2 it was 90 nM.

`CCOC(=O)c1c[nH]c2ncnc(-c3ccc4c(c3)OCO4)c12` [Example 1-48, ethyl 4-(1,3-benzodioxol-5-yl)-7H-pyrrolo[2,3-d]pyrimidine-5-carboxylate]: the IC50 at JAK3 stood at 3.8 nM; at JAK2, 66 nM.

For `CCOC(=O)c1c[nH]c2ncnc(-c3ccc4ncccc4c3)c12` [Example 1-49, ethyl 4-quinolin-6-yl-7H-pyrrolo[2,3-d]pyrimidine-5-carboxylate], the half-inhibitory concentration (IC50) on JAK3 (given as range class) is 10 to 500 nM; at JAK2 (given as range class) it was greater than 500 nM.

Take `CCOC(=O)c1c[nH]c2ncnc(-c3cc4ccccc4s3)c12` [Example 1-50, ethyl 4-(1-benzothiophen-2-yl)-7H-pyrrolo[2,3-d]pyrimidine-5-carboxylate]: the half-maximal inhibitory concentration (IC50) at JAK3 worked out at 4.8 nM; at JAK2 it was 54 nM.

Take `CCOC(=O)c1c[nH]c2ncnc(-c3cn[nH]c3)c12` [Example 1-51, ethyl 4-(1H-pyrazol-4-yl)-7H-pyrrolo[2,3-d]pyrimidine-5-carboxylate]: the 50% inhibitory concentration (IC50) is 10 to 500 nM on JAK3 (given as range class) and greater than 500 nM on JAK2 (given as range class).

Take `CCOC(=O)c1c[nH]c2ncnc(-c3ccc4[nH]ccc4c3)c12` [Example 1-53, ethyl 4-(1H-indol-5-yl)-7H-pyrrolo[2,3-d]pyrimidine-5-carboxylate]: the IC50 on JAK3 came to 1.5 nM; at JAK2, 35 nM.

As to `CCOC(=O)c1c[nH]c2ncnc(-c3cc4ccccc4o3)c12` [Example 1-54, ethyl 4-(1-benzofuran-2-yl)-7H-pyrrolo[2,3-d]pyrimidine-5-carboxylate], the IC50 on JAK3 is 4 nM; at JAK2 it was 61 nM.

In the case of `CCOC(=O)c1c[nH]c2ncnc(-c3ccccc3N)c12` [Example 1-55, ethyl 4-(2-aminophenyl)-7H-pyrrolo[2,3-d]pyrimidine-5-carboxylate], the IC50 at JAK3 (given as range class) is 10 to 500 nM; at JAK2 (given as range class), greater than 500 nM.

As for `CCOC(=O)c1c[nH]c2ncnc(-c3cccs3)c12` [Example 1-56, ethyl 4-thiophen-2-yl-7H-pyrrolo[2,3-d]pyrimidine-5-carboxylate], the IC50 on JAK3 (given as range class) and at JAK2 (given as range class) was 10 to 500 nM throughout.

With `CCOC(=O)c1c[nH]c2ncnc(-c3ccsc3)c12` [Example 1-57, ethyl 4-thiophen-3-yl-7H-pyrrolo[2,3-d]pyrimidine-5-carboxylate], the IC50 on JAK3 (given as range class) and on JAK2 (given as range class) was 10 to 500 nM each time.

As to `CCOC(=O)c1c[nH]c2ncnc(-c3ccc(CO)nc3)c12` [Example 1-58, ethyl 4-[6-(hydroxymethyl)pyridin-3-yl]-7H-pyrrolo[2,3-d]pyrimidine-5-carboxylate], the half-maximal inhibitory concentration (IC50) on JAK3 (given as range class) is 10 to 500 nM; on JAK2 (given as range class), greater than 500 nM.
